Laboratory results: article PMC12888861, “Antibacterial activity of enmetazobactam against Acinetobacter spp.: a molecular dissection of mechanism of action and resistance determinants” (Antimicrobial Agents and Chemotherapy, 2025)
≈ marks a conversion by molar mass, not a printed value.

Assays:
OXA-23 = molecular target: T1, OXA-23 (Acinetobacter baumannii, UniProt Q9L4P2); experiment: OXA-23 inhibition assay (nitrocefin hydrolysis IC50); type: biochemical; conditions: OXA-23; nitrocefin hydrolysis; 10 min preincubation at room temperature; read-out: IC50
T1 construct: GST (N); made in house; host or cells: Escherichia coli BL21
Experimental: The Michaelis-Menten constant (Km) was determined by fitting the data to the Michaelis-Menten equation, following established protocols ([38]). The kcat (hydrolysis rate constant of the β-lactamase) was obtained by linearization of the kinetic data ([39]). To assess the possible inhibitory capacity of enmetazobactam against the CHDLs of A. baumannii, specific OXA-23 inhibition kinetics assays were performed in a Nanoquant Infinite spectrophotometer (Tecan). […] Also, the dissociation constant (koff), which represents the rate at which the enzyme-inhibitor complex dissociates (i.e., the proportion of the enzyme-inhibitor complex that dissociates per unit of time), was determined through a jump-dilution assay that monitored OXA-23 activity recovery as the enzyme-inhibitor complex dissociated. OXA-23 (1 µM) was preincubated for 30 min at 37°C with excess of inhibitors (50× IC₅₀) to ensure full acyl-enzyme complex formation. Subsequently, the mixture was diluted 1:5,000 to allow gradual complex dissociation. […] Enzymatic activity, reflecting the progressive dissociation of the acyl-enzyme complex, was monitored spectrophotometrically at 490 nm for 8 h. The resulting progress curves were fitted using GraphPad Prism (GraphPad Software, MA, USA) to equation 1 to estimate koff, where V0 is the initial, inhibited enzyme velocity; Vs is the steady-state uninhibited enzyme velocity, and t is time.

[1] = tested on: carbapenem-resistant A. baumannii (CRAB) isolates (n = 67); experiment: MIC, broth microdilution (EUCAST), carbapenem-resistant A. baumannii isolates; type: cell-based, Acinetobacter baumannii; conditions: Acinetobacter baumannii
Source text: The bacterial strains used in this study comprised 208 clinical isolates from the Spanish National Acinetobacter spp. 2020 Multicenter Collection, which was previously characterized in detail by our research group, including whole-genome sequencing, phylogenetics studies, clonal dynamics, and resistance mechanisms ([2], [29]). Additionally, a collection of A. baumannii ATCC 17978 transformants coding the blaOXA-23, blaOXA-24/40, blaOXA-51, blaOXA-58, blaOXA-143, and blaOXA-201 genes, previously constructed and described by our group ([30]), was used to determine the activity of enmetazobactam against strains carrying the main CHDLs of A. baumannii.
The antimicrobial susceptibility of the 208 Acinetobacter spp. isolates was assessed using the broth microdilution method, as described in the European Committee on Antimicrobial Susceptibility Testing (EUCAST) v.15 guidelines (http://www.eucast.org/clinical_breakpoints). […] MICs for enmetazobactam alone were assessed as well. […] Subsequently, MIC testing was also conducted with a collection of A. baumannii ATCC 17978 transformants expressing clinically relevant OXA-like carbapenemase genes.
The A. baumannii ATCC 19606 strain was used as the reference strain in all susceptibility experiments, in duplicate assays. Antibiotics were purchased from Sigma-Aldrich, except enmetazobactam and durlobactam, which were obtained from Advanz Pharma and MedChemExpress, respectively.

T1 sequence (Q9L4P2 18-273): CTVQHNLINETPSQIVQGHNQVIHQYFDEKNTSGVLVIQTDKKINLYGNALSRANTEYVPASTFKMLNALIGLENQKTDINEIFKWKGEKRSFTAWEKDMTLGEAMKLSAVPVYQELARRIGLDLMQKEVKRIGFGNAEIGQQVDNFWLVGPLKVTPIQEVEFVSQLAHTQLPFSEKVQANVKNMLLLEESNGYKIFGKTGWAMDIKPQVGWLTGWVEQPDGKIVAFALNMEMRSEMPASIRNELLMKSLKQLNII

SMILES: C[n+]1ccn(C[C@@]2(C)[C@H](C(=O)[O-])N3C(=O)C[C@H]3S2(=O)=O)n1 [enmetazobactam]
- IC50 (OXA-23): 32.4 µM
- MIC ([1]; MBC set, isolate Ab4, A. baumannii ST 2, ADC-30, OXA-66, ISAba1-OXA-23): 64 µg/mL (≈ 204 µM)
- MIC ([1]; MBC set, isolate Ab6, A. baumannii ST 2, ADC-30, OXA-66, ISAba1-OXA-23, TEM-12): 64 µg/mL (≈ 204 µM)
- MIC ([1]; MBC set, isolate Ab9, A. baumannii ST 2, ADC-30, OXA-66, OXA-23, TEM-12): 8 µg/mL (≈ 25.5 µM)
- MIC ([1]; isolate Ab56, ST 1, ADC-75, OXA-69, OXA-23, ETZ fixed 8 mg/L in combinations): 64 µg/mL
- MIC ([1]; isolate Ab83, ST 25, ADC-5, OXA-64, OXA-23, DUR fixed at 4 mg/L in combinations): 64 µg/mL
- MIC ([1]; isolate Ab83, ST 25, ADC-5, OXA-64, OXA-23, ETZ fixed 8 mg/L in combinations): 64 µg/mL
- MIC ([1]; isolate Ab109, ST 1, ADC-75, OXA-69, OXA-23, DUR fixed at 4 mg/L in combinations): 32 µg/mL
- MIC ([1]; isolate Ab109, ST 1, ADC-75, OXA-69, OXA-23, ETZ fixed 8 mg/L in combinations): 32 µg/mL
- MIC ([1]; isolate Ab133, ST 2, ADC-30, OXA-66, OXA-58, TEM-12, DUR fixed at 4 mg/L in combinations): 8 µg/mL
- MIC ([1]; isolate Ab133, ST 2, ADC-30, OXA-66, OXA-58, TEM-12, ETZ fixed 8 mg/L in combinations): 8 µg/mL
- MIC ([1]; isolate Ab134, ST 2, ADC-30, OXA-66, OXA-58, TEM-12, DUR fixed at 4 mg/L in combinations): 8 µg/mL
- MIC ([1]; isolate Ab134, ST 2, ADC-30, OXA-66, OXA-58, TEM-12, ETZ fixed 8 mg/L in combinations): 8 µg/mL
- MIC ([1]; isolate Ab137, ST 85, ADC-2, OXA-94, OXA-23, DUR fixed at 4 mg/L in combinations): 64 µg/mL
- MIC ([1]; isolate Ab137, ST 85, ADC-2, OXA-94, OXA-23, ETZ fixed 8 mg/L in combinations): 64 µg/mL
- MIC ([1]; isolate Ab138, ST 745, ADC-30, OXA-66, OXA-58, DUR fixed at 4 mg/L in combinations): 64 µg/mL
- MIC ([1]; isolate Ab138, ST 745, ADC-30, OXA-66, OXA-58, ETZ fixed 8 mg/L in combinations): 64 µg/mL
- MIC ([1]; isolate Ab140, ST 85, ADC-2, OXA-94, OXA-23, DUR fixed at 4 mg/L in combinations): 64 µg/mL
- MIC ([1]; isolate Ab140, ST 85, ADC-2, OXA-94, OXA-23, ETZ fixed 8 mg/L in combinations): 64 µg/mL
- MIC ([1]; isolate Ab141, ST 745, ADC-30, OXA-66, OXA-58, DUR fixed at 4 mg/L in combinations): 8 µg/mL
- MIC ([1]; isolate Ab141, ST 745, ADC-30, OXA-66, OXA-58, ETZ fixed 8 mg/L in combinations): 8 µg/mL
- MIC ([1]; isolate Ab144, ST 745, ADC-30, OXA-66, OXA-58, DUR fixed at 4 mg/L in combinations): 32 µg/mL
- MIC ([1]; isolate Ab144, ST 745, ADC-30, OXA-66, OXA-58, ETZ fixed 8 mg/L in combinations): 32 µg/mL
- MIC ([1]; isolate Ab169, ST 2, ADC-30, OXA-66, OXA-23, DUR fixed at 4 mg/L in combinations): 32 µg/mL
- MIC ([1]; isolate Ab169, ST 2, ADC-30, OXA-66, OXA-23, ETZ fixed 8 mg/L in combinations): 64 µg/mL
- MIC ([1]; isolate Ab171, ST 2, ADC-30, OXA-66, OXA-23, DUR fixed at 4 mg/L in combinations): 32 µg/mL
- MIC ([1]; isolate Ab171, ST 2, ADC-30, OXA-66, OXA-23, ETZ fixed 8 mg/L in combinations): 64 µg/mL
- MIC ([1]; isolate Ab173, ST 2, ISAba1-ADC-30, OXA-66, OXA-23, DUR fixed at 4 mg/L in combinations): 64 µg/mL
- MIC ([1]; isolate Ab173, ST 2, ISAba1-ADC-30, OXA-66, OXA-23, ETZ fixed 8 mg/L in combinations): 64 µg/mL
- MIC ([1]; isolate Ab174, ST 2, ADC-30, OXA-66, OXA-23, DUR fixed at 4 mg/L in combinations): 64 µg/mL
- MIC ([1]; isolate Ab174, ST 2, ADC-30, OXA-66, OXA-23, ETZ fixed 8 mg/L in combinations): 64 µg/mL
- MIC ([1]; isolate Ab179, ST 2, ADC-30, OXA-66, OXA-23, DUR fixed at 4 mg/L in combinations): 64 µg/mL
- MIC ([1]; isolate Ab179, ST 2, ADC-30, OXA-66, OXA-23, ETZ fixed 8 mg/L in combinations): 64 µg/mL
- MIC ([1]; isolate Ab180, ST 2, ADC-30, OXA-66, OXA-24/40, DUR fixed at 4 mg/L in combinations): 32 µg/mL
- MIC ([1]; isolate Ab180, ST 2, ADC-30, OXA-66, OXA-24/40, ETZ fixed 8 mg/L in combinations): 32 µg/mL
- MIC ([1]; isolate Ab181, ST 2, ADC-30, OXA-66, OXA-23, DUR fixed at 4 mg/L in combinations): 32 µg/mL
- MIC ([1]; isolate Ab181, ST 2, ADC-30, OXA-66, OXA-23, ETZ fixed 8 mg/L in combinations): 32 µg/mL
- MIC ([1]; isolate Ab182, ST 2, ADC-30, OXA-66, OXA-23, DUR fixed at 4 mg/L in combinations): 16 µg/mL
- MIC ([1]; isolate Ab182, ST 2, ADC-30, OXA-66, OXA-23, ETZ fixed 8 mg/L in combinations): 16 µg/mL
- MIC ([1]; isolate Ab183, ST 2, ADC-30, OXA-66, OXA-23, DUR fixed at 4 mg/L in combinations): 32 µg/mL
- MIC ([1]; isolate Ab183, ST 2, ADC-30, OXA-66, OXA-23, ETZ fixed 8 mg/L in combinations): 32 µg/mL
- MIC ([1]; isolate Ab184, ST 2, ADC-30, OXA-66, OXA-23, DUR fixed at 4 mg/L in combinations): 32 µg/mL
- MIC ([1]; isolate Ab184, ST 2, ADC-30, OXA-66, OXA-23, ETZ fixed 8 mg/L in combinations): 32 µg/mL
